Legend:
Format in all cases: cell-based, mouse
[1] = system: NIH3T3 cells overexpressing PKCalpha-KN; assay: MTT cell viability, PKCalpha-KN overexpressing cells vs parental line; conditions: 3 to 4 days
Experimental: (§1) With regard to the function-known genes, the genes shown in the left column of Table 2 were used. With regard to the drugs, those shown in Table 1 were dissolved in DMSO to an extent of 100-fold of the maximum concentration for the search of the drugs and used. With regard to the cells, incubated NIH3T3 or ras-NIH3T3 cells were used.
(§2) Full-length cDNA of each function-known genes was incorporated into an expression vector (pRc-CMV, etc.) and transfected into NIH3T3 cells by a common method. Transformed cells were isolated using the resistance to G-418 as an index and the expression of the transfected gene in each cell was investigated by Western blotting method to select a highly expressing line.
(§3) Cell viabilities were measured according to the following procedures.
(§4) 1) From the 2nd to the 11th rows of a 96-well plate were filled with DMEM (50 μl). The 12th row was filled with 100 μl of DMEM.
(§5) 2) The 1st row was filled with 98 μl of DMEM.
(§6) 3) Drugs (2 μl each) were added into the 1st row.
(§7) 4) Continuous double-dilution was conducted from the 1st to the 9th rows. Fifty μl were taken out from the 9th row and discarded. The plate was preserved in a CO2 incubator.
(§8) 5) Cells (each high-expressing cells and the parental cell line) were detached from the medium using a trypsin solution, suspended in 10% CS-DMEM and transferred to a test tube and cell numbers (cell/ml) were counted.
(§9) 6) The cells were diluted to a concentration of 1×10^5 cells/ml, and 50 μl of the cell suspension were added to the 1st to the 11th rows of the plate followed by gently stirring.
(§10) 7) The plate was transferred to the CO2 incubator and incubated for 3 to 4 days.
(§11) 8) MTT (5 mg/ml in PBS) (10 μl) was added to the 1st to the 12th rows of the plate and incubated in the CO2 incubator at 37° C. for 4 hours.
(§12) 9) A reaction stop solution (0.04N HCl in isopropanol) (150 μl) was added followed by mixing well and being allowed to stand at room temperature for about 2 hours.
(§13) 10) Coloration of formazan which was a metabolite of the MTT dye was measured using a microplate reader. The measurement wavelength was 574 nm and the reference wavelength was 655 nm. The 10th and the 11th rows of the plate were 100% controls and the 12th row was a 0% control.
(§14) As an index for the sensitivity of highly gene-expressing cells and the parental cell line to various drugs, each of the IC40 values thereof was specified and ratios of the IC40 values were calculated. […] After that, logarithmic values of ratios of IC40 values were calculated from each gene.

[2] = system: NIH3T3 cells overexpressing caspase-3; assay: MTT cell viability, caspase-3 overexpressing cells vs parental line; conditions: caspase-3 high-expressing cells / parental cell line, 3 to 4 days
Experimental: as §1, §2, §3, §4, §5, §6, §7, §8, §9, §10, §11, §12, §13, §14

[3] = system: NIH3T3 cells overexpressing DAN; assay: MTT cell viability, DAN overexpressing cells vs parental line; conditions: DAN high-expressing cells / parental cell line, 3 to 4 days
Experimental: as §1, §2, §3, §4, §5, §6, §7, §8, §9, §10, §11, §12, §13
(§15) As an index for the sensitivity of highly gene-expressing cells and the parental cell line to various drugs, each of the IC40 values thereof was specified and ratios of the IC40 values were calculated. FIG. 2 and FIG. 3 are the examples where ratios of IC40 values were calculated from a curve showing the dependency on the concentration of the chemical versus the viability. After that, logarithmic values of ratios of IC40 values were calculated from each gene.

[4] = system: NIH3T3 cells overexpressing RhoA; assay: MTT cell viability, RhoA overexpressing cells vs parental line; conditions: RhoA high-expressing cells / parental cell line, 3 to 4 days
Experimental: as §1, §2, §3, §4, §5, §6, §7, §8, §9, §10, §11, §12, §13, §15

[5] = system: NIH3T3 cells overexpressing JNK-DN; assay: MTT cell viability, JNK-DN overexpressing cells vs parental line; conditions: JNK-DN high-expressing cells / parental cell line, 3 to 4 days
Experimental: as §1, §2, §3, §4, §5, §6, §7, §8, §9, §10, §11, §12, §13, §15

[6] = system: NIH3T3 cells overexpressing HNF3b; assay: MTT cell viability, HNF3b overexpressing cells vs parental line; conditions: HNF3b high-expressing cells / parental cell line, 3 to 4 days
Experimental: as §1, §2, §3, §4, §5, §6, §7, §8, §9, §10, §11, §12, §13, §14

[7] = system: NIH3T3 cells overexpressing Ha-ras; assay: MTT cell viability, drug sensitivity of Ha-ras overexpressing cells vs parental line; conditions: Ha-ras high-expressing cells / parental cell line, 3 to 4 days
Experimental: as §1, §2, §3, §4, §5, §6, §7, §8, §9, §10, §11, §12, §13, §14

[8] = system: NIH3T3 cells, TPA (PKC downreg); assay: MTT cell viability, TPA (PKC downreg) cells vs parental line; conditions: 3 to 4 days
Experimental: as §1, §2, §3, §4, §5, §6, §7, §8, §9, §10, §11, §12, §13, §15

[9] = system: NIH3T3 cells overexpressing PDGF-R-Del; assay: MTT cell viability, PDGF-R-Del overexpressing cells vs parental line; conditions: PDGF-R-Del high-expressing cells / parental cell line, 3 to 4 days
Experimental: as §1, §2, §3, §4, §5, §6, §7, §8, §9, §10, §11, §12, §13, §15

[10] = system: NIH3T3 cells overexpressing cAMP-PK-CS; assay: MTT cell viability, cAMP-PK-CS overexpressing cells vs parental line; conditions: cAMP-PK-CS high-expressing cells / parental cell line, 3 to 4 days
Experimental: as §1, §2, §3, §4, §5, §6, §7, §8, §9, §10, §11, §12, §13, §14

[11] = system: NIH3T3 cells overexpressing p16/INK4A; assay: MTT cell viability, p16/INK4A overexpressing cells vs parental line; conditions: p16/INK4A high-expressing cells / parental cell line, 3 to 4 days
Experimental: as §1, §2, §3, §4, §5, §6, §7, §8, §9, §10, §11, §12, §13, §15

[12] = system: NIH3T3 cells overexpressing HSP9O; assay: MTT cell viability, HSP9O overexpressing cells vs parental line; conditions: HSP9O high-expressing cells / parental cell line, 3 to 4 days
Experimental: as §1, §2, §3, §4, §5, §6, §7, §8, §9, §10, §11, §12, §13, §15

[13] = system: NIH3T3 cells overexpressing HSP4O; assay: MTT cell viability, HSP4O overexpressing cells vs parental line; conditions: HSP4O high-expressing cells / parental cell line, 3 to 4 days
Experimental: as §1, §2, §3, §4, §5, §6, §7, §8, §9, §10, §11, §12, §13, §15

[14] = system: NIH3T3 cells overexpressing N-ras; assay: MTT cell viability, N-ras overexpressing cells vs parental line; conditions: N-ras high-expressing cells / parental cell line, 3 to 4 days
Experimental: as §1, §2, §3, §4, §5, §6, §7, §8, §9, §10, §11, §12, §13, §15

[15] = system: NIH3T3 cells overexpressing m-calpain; assay: MTT cell viability, m-calpain overexpressing cells vs parental line; conditions: m-calpain high-expressing cells / parental cell line, 3 to 4 days
Experimental: as §1, §2, §3, §4, §5, §6, §7, §8, §9, §10, §11, §12, §13, §14

[16] = system: NIH3T3 cells overexpressing T.Tn; assay: MTT cell viability, T.Tn overexpressing cells vs parental line; conditions: T.Tn high-expressing cells / parental cell line, 3 to 4 days
Experimental: as §1, §2, §3, §4, §5, §6, §7, §8, §9, §10, §11, §12, §13, §14

[17] = system: NIH3T3 cells overexpressing cystatin alpha; assay: MTT cell viability, cystatin alpha overexpressing cells vs parental line; conditions: cystatin alpha high-expressing cells / parental cell line, 3 to 4 days
Experimental: as §1, §2, §3, §4, §5, §6, §7, §8, §9, §10, §11, §12, §13, §15

[18] = system: NIH3T3 cells overexpressing PKCepsilon-KN; assay: MTT cell viability, PKCepsilon-KN overexpressing cells vs parental line; conditions: 3 to 4 days
Experimental: as §1, §2, §3, §4, §5, §6, §7, §8, §9, §10, §11, §12, §13, §14

[19] = system: NIH3T3 cells overexpressing ERK-DN; assay: MTT cell viability, ERK-DN overexpressing cells vs parental line; conditions: ERK-DN high-expressing cells / parental cell line, 3 to 4 days
Experimental: as §1, §2, §3, §4, §5, §6, §7, §8, §9, §10, §11, §12, §13, §14

[20] = PKCalpha-KN (first of two lines) high-expressing cells / parental cell line
[21] = PKCalpha-KN (second of two lines) high-expressing cells / parental cell line
[22] = PKCepsilon-KN (first of two lines) high-expressing cells / parental cell line
[23] = PKCepsilon-KN (second of two lines) high-expressing cells / parental cell line

| SMILES | logarithmic value of ratio of IC40 values [1, 20] | logarithmic value of ratio of IC40 values [1, 21] | logarithmic value of ratio of IC40 values [2] | logarithmic value of ratio of IC40 values [3] | logarithmic value of ratio of IC40 values [4] | logarithmic value of ratio of IC40 values [5] | logarithmic value of ratio of IC40 values [6] | logarithmic value of ratio of IC40 values [7] | logarithmic value of ratio of IC40 values [8] | logarithmic value of ratio of IC40 values [9] | logarithmic value of ratio of IC40 values [10] | logarithmic value of ratio of IC40 values [11] | logarithmic value of ratio of IC40 values [12] | logarithmic value of ratio of IC40 values [13] | logarithmic value of ratio of IC40 values [14] | logarithmic value of ratio of IC40 values [15] | logarithmic value of ratio of IC40 values [16] | logarithmic value of ratio of IC40 values [17] | logarithmic value of ratio of IC40 values [18, 22] | logarithmic value of ratio of IC40 values [18, 23] | further results |
| --- | --- | --- | --- | --- | --- | --- | --- | --- | --- | --- | --- | --- | --- | --- | --- | --- | --- | --- | --- | --- | --- |
| Nc1nc2nc[nH]c2c(=S)[nH]1 [6-TG, 6-thioguanine] | 0.26 | 0.38 | 1.16 | 0.64 | 0.69 | 0.00 | 0.03 | −0.19 | 0.00 | 0.51 | 0.14 | 0.46 | 0.57 | 0.50 | −0.22 | 0.29 | 0.00 | 0.60 | 0.00 | 0.00 | – |
| CNc1ccc2oc(C[C@H]3O[C@@]4(CC[C@H]3C)O[C@H]([C@H](C)C(=O)c3ccc[nH]3)[C@H](C)C[C@H]4C)nc2c1C(=O)O [A23187] | 0.22 | −0.05 | 0.28 | 0.40 | 0.26 | −0.08 | −0.16 | −0.28 | −0.22 | 0.15 | −0.08 | 0.00 | 0.28 | −0.16 | 0.20 | 0.26 | −0.22 | 0.26 | −0.28 | 0.15 | logarithmic value of ratio of IC40 values [19]: 0.00 |
| CN(C)CCCn1cc(C2=C(c3c[nH]c4ccccc34)C(=O)NC2=O)c2ccccc21 [GF109203X] | 0.22 | 0.62 | 0.82 | 0.65 | 0.24 | 0.58 | 0.21 | −0.39 | 0.09 | 0.91 | 0.27 | 0.48 | – | −0.07 | – | 0.35 | −0.10 | 0.60 | −0.17 | 0.32 | logarithmic value of ratio of IC40 values [19]: 0.48 |
| C=CC1=C(C)c2cc3[n-]c(cc4nc(cc5[n-]c(cc1n2)c(C)c5CCC(=O)O)C(CCC(=O)O)=C4C)c(C)c3C=C.[Cl-].[Cl-].[Sn+4] [SnPP] | −0.14 | 0.00 | −0.40 | −0.49 | 0.14 | −0.11 | 0.24 | 0.28 | −0.20 | 0.08 | 0.02 | −0.05 | – | 0.28 | 0.14 | −0.07 | 0.00 | 0.00 | 0.27 | 0.24 | logarithmic value of ratio of IC40 values [19]: 0.00 |
| CN[C@@H]1C[C@H]2O[C@@](C)([C@@H]1OC)n1c3ccccc3c3c4c(c5c6ccccc6n2c5c31)C(=O)NC4 [Staurosporine] | – | – | – | 0.48 | 0.15 | 0.14 | – | 0.30 | −0.12 | 0.28 | −0.12 | −0.22 | 0.22 | 0.30 | 0.24 | – | – | 0.30 | – | – | – |
| CC(C)(C)C(=O)Oc1ccc(S(=O)(=O)Nc2ccccc2C(=O)NCC(=O)O)cc1 [compound 5046] | 0.10 | −0.05 | 0.40 | 0.26 | 0.11 | −0.09 | −0.25 | – | −0.10 | −0.07 | – | 0.22 | 0.52 | −0.15 | 0.23 | −0.04 | – | – | −0.21 | – | – |

Source: patent US20040086901A1, “Database for analyzing gene function and method of analyzing gene function by dspa” (priority 2000, published 2004)
